The text below walks through data of US11530244B2, “Cyclic polypeptides for PCSK9 inhibition” (priority 2018, dated 2022).

Starred links: 1 amine or outer side, 2 acyl side, 3 side chain; linkers in the order of their positions; H or OH if unused. Positions of bridges follow the written chain, without caps; N, C: chain ends. Non-standard residues stand in square brackets, D forms with d. Residues, ends and D or L forms follow the SMILES beside them. *: point of attachment. X1 = O=C1CC[C@@H](C(=O)[*:1])N1CCCSCc1cccc(C[*:2])c1; Trp(5-F) = N[C@@H](Cc1c[nH]c2ccc(F)cc12)C(=O)O; mXylylene(5-F) = Fc1cc(C[*:1])cc(C[*:2])c1; mXylylene = c1cc(C[*:1])cc(C[*:2])c1; Cha = N[C@@H](CC1CCCCC1)C(=O)O; NMeL = CN[C@@H](CC(C)C)C(=O)O; PEG4 = NCCOCCOCCOCCOCCC(=O)O; αMeP = C[C@@]1(C(=O)O)CCCN1; X51 = COCCOCCOCCOCCC(=O)*; Mpa = O=C(O)CCS

What all share (format): binding
Experiment [1] has as its target human PCSK9 / human LDLR EGFa domain interaction (Homo sapiens (Human), UniProt Q8NBP7). Briefly: TR-FRET assay of inhibition of the PCSK9-LDLR protein-protein interaction. As to conditions: TR-FRET, 20 nM human PCSK9, 20 nM human LDLR EGFa domain, 2 hours room temperature; read-out: IC50. In outline:
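Inhibition of PCSK9 binding to the LDLR EGFa domain, each protein at 20 nM, detected by TR-FRET using streptavidin and anti-His donor/acceptor labels (5 nM). Two-hour room-temperature incubation in calcium-containing HEPES buffer.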
(Time-resolved FRET reads energy transfer from a long-lived donor to a nearby acceptor.)

Experiment [2] concerns the target T1, PCSK9 (Homo sapiens (Human), UniProt Q8NBP7). The experiment is described as follows: PCSK9 Alexa FRET Standard assay (displacement of AlexaFluor647 tagged cyclic peptide Reagent A). Particulars: PCSK9 Alexa FRET Standard assay, 0.5 nM PCSK9, 20 nM AF cyclic peptide Reagent A; read-out: IC50. In outline:
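TR-FRET displacement: 0.5 nM biotinylated PCSK9 with 1.25 nM Strep-Eu and 20 nM AlexaFluor-tagged cyclic peptide (final) in 50 mM HEPES pH 7.4, 0.15 M NaCl, 5 mM CaCl2, 0.01% BSA, 0.01% P20, ≥2 h at room temperature. IC50 from sigmoidal fit, converted to Ki via peptide KD; falling Eu counts flagged false positives.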

The target in experiment [3] is T1, PCSK9. The experiment is described as follows: PCSK9 Alexa FRET Plus assay (displacement of AlexaFluor647 tagged cyclic peptide Reagent B). As to conditions: 0.5 nM PCSK9, 960 nM AF cyclic peptide Reagent B. In outline:
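TR-FRET displacement with final 0.5 nM biotinylated PCSK9, 1.25 nM Strep-Eu and 960 nM AlexaFluor-tagged cyclic peptide in HEPES pH 7.4, NaCl, CaCl2, BSA, P20; ≥2 h at room temperature. IC50 from sigmoidal fit, converted to Ki using peptide KD. Falling europium counts flagged false positives.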

[4] abbreviates: Alexa FRET Plus, read-out: IC50.

human PCSK9 / human LDLR EGFa domain interaction, sequence (Q8NBP7 153-692): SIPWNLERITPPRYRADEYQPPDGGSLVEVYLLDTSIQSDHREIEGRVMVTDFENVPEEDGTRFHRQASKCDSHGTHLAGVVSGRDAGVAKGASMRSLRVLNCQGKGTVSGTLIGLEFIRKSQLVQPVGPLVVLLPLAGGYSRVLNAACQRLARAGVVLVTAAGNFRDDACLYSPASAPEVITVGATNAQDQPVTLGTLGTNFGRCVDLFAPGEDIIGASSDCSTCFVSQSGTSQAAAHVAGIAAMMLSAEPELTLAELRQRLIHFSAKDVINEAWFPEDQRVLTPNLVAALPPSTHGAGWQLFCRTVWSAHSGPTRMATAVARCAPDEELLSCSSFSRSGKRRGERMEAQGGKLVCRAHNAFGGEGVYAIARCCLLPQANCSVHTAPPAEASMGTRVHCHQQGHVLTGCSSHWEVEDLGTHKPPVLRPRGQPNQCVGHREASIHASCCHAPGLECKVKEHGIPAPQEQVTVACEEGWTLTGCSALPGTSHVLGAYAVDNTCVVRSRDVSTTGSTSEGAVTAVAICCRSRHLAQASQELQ
human PCSK9 / human LDLR EGFa domain interaction, sequence (Q8NBP7 31-152 partner): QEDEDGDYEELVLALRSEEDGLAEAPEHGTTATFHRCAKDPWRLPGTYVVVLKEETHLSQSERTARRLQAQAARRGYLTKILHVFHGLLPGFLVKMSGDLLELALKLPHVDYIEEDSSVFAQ
T1 sequence (Q8NBP7 153-692): as the sequence (Q8NBP7 153-692) above

One may read the IC50 as the concentration needed to halve the response being measured. For `CC(C)C[C@@H]1NC(=O)[C@@H]2CCCN2C(=O)[C@H](Cc2c[nH]c3ccc(F)cc23)NC(=O)[C@H](Cc2c[nH]c3ccc(F)cc23)NC(=O)CNC(=O)[C@H](CCCCN)NC(=O)CCSCc2cccc(c2)CSC[C@@H](C(N)=O)NC(=O)[C@]2(C)CCCN2C(=O)[C@H](Cc2ccc(O)cc2)NC1=O` [Compound 004] ([Mpa]KG[Trp(5-F)][Trp(5-F)]PLY[αMeP]C-NH2; linker 1-10 via mXylylene), the IC50 in experiment [1] was in the range of 0.0001 to 0.1 µM; in experiment [2], 0.00011 to 0.1 µM; in experiment [3] (setting [4]) it was 0.1 to 0.5 µM.
For `CC[C@H](C)[C@@H]1NC(=O)[C@@H]2CCCN2C(=O)[C@H](Cc2c[nH]c3ccc(F)cc23)NC(=O)[C@H](Cc2c[nH]c3ccc(F)cc23)NC(=O)[C@@H](C)NC(=O)[C@H](CCCCN)NC(=O)CCSCc2cccc(c2)CSC[C@@H](C(N)=O)NC(=O)[C@]2(C)CCCN2C(=O)[C@H](Cc2ccc(OC)cc2)NC1=O` [Compound 007] ([Mpa]K[dA][Trp(5-F)][Trp(5-F)]PIY(Me)[αMeP]C-NH2; linker 1-10 via mXylylene), the IC50 in experiment [1] is 0.0001 to 0.1 µM; in experiment [2] it was 0.1 to 1 µM; in experiment [3] (setting [4]), 0.5 to 5 µM.
For `COc1ccc(C[C@@H]2NC(=O)[C@H](C(C)C)NC(=O)[C@@H]3CCCN3C(=O)[C@H](Cc3c[nH]c4ccc(F)cc34)NC(=O)[C@H](Cc3c[nH]c4ccc(F)cc34)NC(=O)[C@@H](C)NC(=O)[C@H](CCCCN)NC(=O)CCSCc3cc(F)cc(c3)CSC[C@@H](C(N)=O)NC(=O)[C@]3(C)CCCN3C2=O)cc1` [Compound 010] ([Mpa]K[dA][Trp(5-F)][Trp(5-F)]PVY(Me)[αMeP]C-NH2; linker 1-10 via mXylylene(5-F)), in that order: 0.0001 to 0.1 µM, 0.1 to 1 µM and 0.5 to 5 µM.
As to `COc1ccc(C[C@@H]2NC(=O)[C@H](Cc3ccc(OC)cc3)NC(=O)[C@@H](CC(C)C)NC(=O)[C@H]([C@@H](C)OC)NC(=O)CCSCc3cccc(c3)CSC[C@@H](C(N)=O)NC(=O)[C@@H]3CCCN3C(=O)[C@H](Cc3ccc(OC)cc3)NC(=O)[C@H](Cc3ccc(OC)cc3)NC(=O)[C@H](CC(C)C)NC2=O)cc1` [Compound 034] ([Mpa]T(Me)[dL]Y(Me)Y(Me)LY(Me)Y(Me)PC-NH2; linker 1-10 via mXylylene), the IC50 in experiment [1] is 0.0001 to 0.1 µM; in experiment [2] it was 0.00011 to 0.1 µM; in experiment [3] (setting [4]), 0.0001 to 0.1 µM.
As to `COc1ccc(C[C@@H]2NC(=O)[C@@H](CC(C)C)NC(=O)[C@H]([C@@H](C)OC)NC(=O)CCSCc3cccc(c3)CSC[C@@H](C(N)=O)NC(=O)[C@]3(C)CCCN3C(=O)[C@H](Cc3ccc(OC)cc3)NC(=O)[C@H]([C@@H](C)OC)NC(=O)[C@H](CC(C)C)N(C)C(=O)[C@H](Cc3ccc(OC)cc3)NC2=O)cc1` [Compound 035] ([Mpa]T(Me)[dL]Y(Me)Y(Me)[NMeL]T(Me)Y(Me)[αMeP]C-NH2; linker 1-10 via mXylylene), the figures for the IC50 in experiment [1], in experiment [2] and in experiment [3] (setting [4]) were 0.0001 to 0.1 µM, 0.00011 to 0.1 µM and 0.0001 to 0.1 µM, respectively.
For the compound `COc1ccc(C[C@@H]2NC(=O)[C@H]([C@@H](C)O)NC(=O)[C@@H]3C[C@H](F)CN3C(=O)[C@H](Cc3c[nH]c4ccc(F)cc34)NC(=O)[C@H](Cc3c[nH]c4ccc(F)cc34)NC(=O)[C@@H](C)NC(=O)CNC(=O)CCCCNCc3ccc(cc3)C[C@@H](C(N)=O)NC(=O)[C@]3(C)CCCN3C2=O)cc1` [Compound 130], the IC50 was 0.0001 to 0.1 µM in experiment [1]; 0.00011 to 0.1 µM in experiment [2]; 0.1 to 0.5 µM in experiment [3] (IC50, Alexa FRET Plus).
As to `NCCCC[C@@H]1NC(=O)CCCn2cc(nn2)CCC[C@@H](C(N)=O)NC(=O)[C@@H]2CCCN2C(=O)[C@H](Cc2ccc(O)cc2)NC(=O)[C@H](Cc2c[nH]cn2)NC(=O)[C@H](CC(=O)O)NC(=O)[C@H](Cc2c[nH]c3ccc(F)cc23)NC(=O)[C@H](Cc2c[nH]c3ccc(F)cc23)NC(=O)CNC1=O` [Compound 152], the results for the IC50 in experiment [1], in experiment [2] and in experiment [3] (setting [4]) were 0.0001 to 0.1 µM, 0.1 to 1 µM and 0.5 to 5 µM, respectively.
For `NCCCC[C@@H]1NC(=O)CCCn2cc(nn2)C[C@@H](C(N)=O)NC(=O)[C@@H]2CCCN2C(=O)[C@H](Cc2ccc(O)cc2)NC(=O)[C@H](Cc2c[nH]cn2)NC(=O)[C@H](CC(=O)O)NC(=O)[C@H](Cc2c[nH]c3ccc(F)cc23)NC(=O)[C@H](Cc2c[nH]c3ccc(F)cc23)NC(=O)CNC1=O` [Compound 184], in that order: 0.0001 to 0.1 µM, 0.00011 to 0.1 µM and 0.0001 to 0.1 µM.
For `NCCCC[C@@H]1NC(=O)CCSCc2cccc(c2)CSC[C@@H](C(N)=O)NC(=O)[C@@H]2CCCN2C(=O)[C@H](Cc2ccc(O)cc2)NC(=O)[C@H](Cc2c[nH]cn2)NC(=O)[C@H](CC(=O)O)NC(=O)[C@H](Cc2c[nH]c3ccc(F)cc23)NC(=O)[C@H](CC2CCCCC2)NC(=O)CNC1=O` [Compound 223] ([Mpa]KG[Cha][Trp(5-F)]DHYPC-NH2; linker 1-10 via mXylylene), in that order: 0.0001 to 0.1 µM, 0.00011 to 0.1 µM and 0.1 to 0.5 µM.
Take `C[C@@]12CCCN1C(=O)[C@H](Cc1ccc(O)cc1)NC(=O)[C@H](Cc1c[nH]cn1)NC(=O)[C@H](CC(=O)O)NC(=O)[C@H](Cc1c[nH]c3ccc(F)cc13)NC(=O)[C@H](Cc1c[nH]c3ccc(F)cc13)NC(=O)CNC(=O)[C@@H]1CCC(=O)N1CCCSCc1cccc(c1)CSC[C@@H](C(N)=O)NC2=O` [Compound 482] (G[Trp(5-F)][Trp(5-F)]DHY[αMeP]C-NH2; linker N-8 via X1): the IC50 in experiment [2] lay in the range of 0.00011 to 0.1 µM; in experiment [3] (setting [4]), 0.1 to 0.5 µM.
Consider `COCCOCCOCCOCCC(=O)NCCCC[C@@H]1NC(=O)CCSCc2cccc(c2)CSC[C@@H](C(N)=O)NC(=O)[C@]2(C)CCCN2C(=O)[C@H](Cc2ccc(O)cc2)NC(=O)[C@H](Cc2cnc[nH]2)NC(=O)[C@H](CC(=O)O)NC(=O)[C@H](Cc2c[nH]c3ccc(F)cc23)NC(=O)[C@H](Cc2c[nH]c3ccc(F)cc23)NC(=O)CNC1=O` [Compound 484] ([Mpa]K(X51)G[Trp(5-F)][Trp(5-F)]DHY[αMeP]C-NH2; linker 1-10 via mXylylene), for which the figures for the IC50 in experiment [2] and in experiment [3] (setting [4]) were 0.00011 to 0.1 µM and 0.0001 to 0.1 µM, respectively.
For the compound `C[C@@]12CCCN1C(=O)[C@H](Cc1ccc(O)cc1)NC(=O)[C@H](Cc1cnc[nH]1)NC(=O)[C@H](CC(=O)O)NC(=O)[C@H](Cc1c[nH]c3ccc(F)cc13)NC(=O)[C@H](Cc1c[nH]c3ccc(F)cc13)NC(=O)CNC(=O)[C@H](CCCCNC(=O)CCOCCOCCOCCOCCN)NC(=O)CCSCc1cccc(c1)CSC[C@@H](C(N)=O)NC2=O` [Compound 485] ([Mpa]K(PEG4)G[Trp(5-F)][Trp(5-F)]DHY[αMeP]C-NH2; linker 1-10 via mXylylene), the values for the IC50 in experiment [2] and in experiment [3] (setting [4]) were 0.00011 to 0.1 µM and 0.0001 to 0.1 µM, respectively.
On to `COc1ccc(C[C@@H]2NC(=O)[C@@H]3CCCC/C=C\CC[C@@]4(CCCN4C2=O)C(=O)NCCSCc2cccc(c2)CSCCC(=O)N[C@@H](C)C(=O)N[C@H](C)C(=O)N[C@H]2Cc4cccc(c4)CNC(=O)CC[C@@H](C(=O)N3)N3C(=O)[C@@H](NC2=O)C3c2c[nH]c3ccc(F)cc23)cc1` (stereo partly shown) [Compound 524], for which the 50% inhibitory concentration (IC50) in experiment [2] was in the range of 0.1 to 1 µM; in experiment [3] (setting [4]), 0.5 to 5 µM.
The like results for `COc1ccc(C[C@@H]2NC(=O)[C@H]([C@H](C)O)NC(=O)[C@@H]3CCCc4cn(nn4)CC[C@H](NC(=O)[C@@H](C)NC(=O)[C@H](C)NC(=O)CCSCc4cccc(c4)CSCCNC(=O)[C@]4(C)CCCN4C2=O)C(=O)N[C@@H](Cc2c[nH]c4ccc(F)cc24)C(=O)N3)cc1` [Compound 525] were, in that order, 0.1 to 1 µM and 0.5 to 5 µM.
